Measurements from patent publication US11649236B2, “Polycyclic carbamoylpyridone derivative” (Shionogi & Co., Ltd., priority 2018, dated 2023).
pEC50: −log10 of the molar value.

These compounds were tested on HIV (assay: Anti-HIV activity (MT-4 cells, MTT)). Conditions: Human immunodeficiency virus 1, MT4, 96 h, cultured 4 days.
Type: cell-based
Experimental: Serial dilutions of a test sample were prepared in a 96-well microplate (50 μL/well). 2.5×10^5 cells/mL of a MT-4 cell suspension was dispensed at 100 μL/well to the plate containing the test sample. Then, an HIV virus solution was dispensed at 50 μL/well. The plate was mixed with a plate mixer and cultured for 4 days in a CO2 incubator. An MTT (3-(4,5-dimethylthiazol-2-yl)-2,5-diphenyltetrazolium bromide) solution was dispensed at 30 μL/well. The plate was reacted for 1 hour in a CO2 incubator. 150 μL of the supernatant was removed from each well so as not to take up the cells. 150 μL of a cell lysis solution was added to each well and well mixed with a plate mixer until the cells were completely lysed. The absorbance of the mixed plate was measured at two wavelengths of 560 nm and 690 nm with a microplate reader.

SMILES	pEC50
CCN1C(=O)c2c(O)c(=O)c(C(=O)NCc3ccc(F)cc3F)cn2N2CCOC[C@@H]12 [Compound I-001]	9.28
CCN1C(=O)c2c(O)c(=O)c(C(=O)NCc3ccc(F)c(Cl)c3F)cn2N2CCCC[C@@H]12 [Compound I-003]	8.85
CCN1C(=O)c2c(O)c(=O)c(C(=O)NCc3ccc(F)c(Cl)c3F)cn2N2CCOC[C@@H]12 [Compound I-004]	9.25
CCN1C(=O)c2c(O)c(=O)c(C(=O)NCc3ccc(F)c(Cl)c3F)cn2N2CCC[C@@H]12 [Compound I-005]	8.89
CCN1C(=O)c2c(O)c(=O)c(C(=O)NCc3cc(Cl)c(F)cc3F)cn2N2CCCC[C@@H]12 [Compound I-007]	8.40
CCN1C(=O)c2c(O)c(=O)c(C(=O)NCc3ccc(F)cc3F)cn2N2CCC[C@@]12C [Compound I-008]	8.70
CCN1C(=O)c2c(O)c(=O)c(C(=O)NCc3ccc(F)cc3F)cn2N2CCN(C(=O)OC(C)(C)C)C[C@@H]12 [Compound I-009]	8.92
CCN1C(=O)c2c(O)c(=O)c(C(=O)NCc3ccc(F)cc3F)cn2N2CCNC[C@@H]12 [Compound I-010]	8.72
CCN1C(=O)c2c(O)c(=O)c(C(=O)NCc3ccc(F)c(C)c3F)cn2N2CCCC[C@@H]12 [Compound I-012]	8.40
CCN1C(=O)c2c(O)c(=O)c(C(=O)NCc3ccc(F)cc3F)cn2N2CCN(C)C[C@@H]12 [Compound I-013]	8.25
CCN1C(=O)c2c(O)c(=O)c(C(=O)NCc3ccc(Br)cc3F)cn2N2CCCC[C@@H]12 [Compound I-014]	8.00
COCCN1C(=O)c2c(O)c(=O)c(C(=O)NCc3ccc(F)cc3F)cn2N2CCCC[C@@H]12 [Compound I-016]	8.85
CCN1C(=O)c2c(O)c(=O)c(C(=O)NC3(c4ccc(F)cc4F)CC3)cn2N2CCCC[C@@H]12 [Compound I-017]	8.21
CCN1C(=O)c2c(O)c(=O)c(C(=O)NCc3ccc(F)cc3F)cn2N2Cc3ccccc3[C@@H]12 [Compound I-018]	8.68
CCN1C(=O)c2c(O)c(=O)c(C(=O)NCc3cccc(Cl)c3F)cn2N2CCCC[C@@H]12 [Compound I-019]	8.74
CCN1C(=O)c2c(O)c(=O)c(C(=O)NCc3ccc(F)cc3F)cn2N2CCCC(C)(C)[C@@H]12 [Compound I-020]	8.89
CCCN1C(=O)c2c(O)c(=O)c(C(=O)NCc3ccc(F)cc3F)cn2N2CCCC[C@@H]12 [Compound I-021]	8.96
O=C(NCc1ccc(F)cc1F)c1cn2c(c(O)c1=O)C(=O)N(C[C@H]1CCCO1)[C@@H]1CCCCN12 [Compound I-022]	8.96
O=C(NCc1ccc(F)cc1F)c1cn2c(c(O)c1=O)C(=O)N(C[C@@H]1CCCO1)[C@@H]1CCCCN12 [Compound I-023]	9.21
COCCCN1C(=O)c2c(O)c(=O)c(C(=O)NCc3ccc(F)cc3F)cn2N2CCCC[C@@H]12 [Compound I-024]	8.54
CCN1C(=O)c2c(O)c(=O)c(C(=O)NCc3ccc(F)c(F)c3F)cn2N2CCCC[C@@H]12 [Compound I-025]	8.72
O=C(NCc1ccc(F)cc1F)c1cn2c(c(O)c1=O)C(=O)N(C1CCCC1)[C@@H]1CCCCN12 [Compound I-026]	8.46
CCN1C(=O)c2c(O)c(=O)c(C(=O)NCc3ccc(F)cc3F)cn2N2CCc3ccccc3[C@@H]12 [Compound I-027]	9.05

SMILES	pEC50
O=C(NCc1ccc(F)cc1F)c1cn2c(c(O)c1=O)C(=O)N(CC1CC1)[C@@H]1CCCCN12 [Compound I-028]	8.72
CCN1C(=O)c2c(O)c(=O)c(C(=O)N[C@H](C)c3ccc(F)cc3F)cn2N2CCCC[C@@H]12 [Compound I-029]	7.92
CCN1C(=O)c2c(O)c(=O)c(C(=O)N[C@@H](C)c3ccc(F)cc3F)cn2N2CCCC[C@@H]12 [Compound I-030]	7.44
O=C(NCc1ccc(F)cc1F)c1cn2c(c(O)c1=O)C(=O)N(C1CC1)[C@@H]1CCCCN12 [Compound I-031]	9.16
CCN1C(=O)c2c(O)c(=O)c(C(=O)NCc3ccc(F)cc3F)cn2N2CCCCC[C@@H]12 [Compound I-032]	8.92
CCN1C(=O)c2c(O)c(=O)c(C(=O)NCc3cccc(Cl)c3Cl)cn2N2CCCC[C@@H]12 [Compound I-033]	8.60
CCN1C(=O)c2c(O)c(=O)c(C(=O)NCc3ccc(F)c(Cl)c3)cn2N2CCCC[C@@H]12 [Compound I-034]	8.89
CCN1C(=O)c2c(O)c(=O)c(C(=O)NCc3ccc(Cl)cc3F)cn2N2CCCC[C@@H]12 [Compound I-035]	8.49
CCN1C(=O)c2c(O)c(=O)c(C(=O)NCc3cc(F)c(F)cc3F)cn2N2CCCC[C@@H]12 [Compound I-036]	8.85
CCN1C(=O)c2c(O)c(=O)c(C(=O)NCc3cc(F)c(F)c(F)c3)cn2N2CCCC[C@@H]12 [Compound I-037]	8.70
CCN1C(=O)c2c(O)c(=O)c(C(=O)NCc3ccc(F)cc3Cl)cn2N2CCCC[C@@H]12 [Compound I-038]	9.14
COC[C@H](C)N1C(=O)c2c(O)c(=O)c(C(=O)NCc3ccc(F)cc3F)cn2N2CCCC[C@@H]12 [Compound I-039]	8.36
COC[C@@H](C)N1C(=O)c2c(O)c(=O)c(C(=O)NCc3ccc(F)cc3F)cn2N2CCCC[C@@H]12 [Compound I-040]	9.15
C[C@@H](N1C(=O)c2c(O)c(=O)c(C(=O)NCc3ccc(F)cc3F)cn2N2CCCC[C@@H]12)C(F)(F)F [Compound I-041]	9.18
CCN1C(=O)c2c(O)c(=O)c(C(=O)NCc3cccc(F)c3F)cn2N2CCCC[C@@H]12 [Compound I-042]	9.14
O=C(NCc1ccc(F)cc1F)c1cn2c(c(O)c1=O)C(=O)N(Cc1ccc(F)cc1F)[C@@H]1CCCCN12 [Compound I-043]	8.46
O=C(NCc1ccc(F)cc1F)c1cn2c(c(O)c1=O)C(=O)N([C@@H]1C[C@@H]1F)[C@@H]1CCCCN12 [Compound I-044]	8.92
O=C(NCc1ccc(F)cc1F)c1cn2c(c(O)c1=O)C(=O)N(CCF)[C@@H]1CCCCN12 [Compound I-045]	9.14
O=C(NCc1ccc(F)cc1F)c1cn2c(c(O)c1=O)C(=O)N(CC(F)F)[C@@H]1CCCCN12 [Compound I-046]	9.37
O=C(NCc1ccc(F)cc1F)c1cn2c(c(O)c1=O)C(=O)N(CCCF)[C@@H]1CCCCN12 [Compound I-047]	8.82
CCN1C(=O)c2c(O)c(=O)c(C(=O)NCc3c(F)ccc(Cl)c3F)cn2N2CCCC[C@@H]12 [Compound I-048]	8.92
CCN1C(=O)c2c(O)c(=O)c(C(=O)NCc3c(Cl)ccc(Cl)c3F)cn2N2CCCC[C@@H]12 [Compound I-049]	8.64
O=C(NCc1ccc(F)cc1F)c1cn2c(c(O)c1=O)C(=O)N(C1CC(F)(F)C1)[C@@H]1CCCCN12 [Compound I-051]	9.14

SMILES	pEC50
O=C(NCc1ccc(F)cc1F)c1cn2c(c(O)c1=O)C(=O)N(C1CCC(F)(F)CC1)[C@@H]1CCCCN12 [Compound I-052]	8.26
O=C(NCc1ccc(F)cc1F)c1cn2c(c(O)c1=O)C(=O)N(CC(F)(F)F)[C@@H]1CCCCN12 [Compound I-053]	9.03
CC(C)N1C(=O)c2c(O)c(=O)c(C(=O)NCc3c(F)cc(F)cc3F)cn2N2C[C@@H](C)CC[C@@H]12 [II-001]	9.00
COC[C@@H](C)N1C(=O)c2c(O)c(=O)c(C(=O)NCc3cccc(Cl)c3F)cn2N2CC[C@H](C)C[C@@H]12 [II-002]	9.11
CCN1C(=O)c2c(O)c(=O)c(C(=O)NC3(c4cccc(Cl)c4F)CC3)cn2N2CCCC[C@@H]12 [II-003]	8.21
COC[C@@H](C)N1C(=O)c2c(O)c(=O)c(C(=O)NCc3cccc(Cl)c3F)cn2N2CCCC[C@@H]12 [II-006]	9.24
C[C@H]1CC[C@H]2N(C)C(=O)c3c(O)c(=O)c(C(=O)NCc4c(F)cc(F)cc4F)cn3N2C1 [II-007]	9.21
CCN1C(=O)c2c(O)c(=O)c(C(=O)NCc3cccc(Cl)c3F)cn2N2[C@H](C)CC[C@@H]12 [II-008]	8.82
COC[C@@H]1CC[C@H]2N(C(C)C)C(=O)c3c(O)c(=O)c(C(=O)NCc4ccc(F)cc4F)cn3N12 [II-010]	9.00
COC[C@@H]1CC[C@H]2N(C(C)C)C(=O)c3c(O)c(=O)c(C(=O)NCc4c(F)cc(F)cc4F)cn3N12 [II-011]	9.31
CCN1C(=O)c2c(O)c(=O)c(C(=O)N[C@H](C)c3cccc(Cl)c3F)cn2N2CCCC[C@@H]12 [II-012]	8.44
C[C@@H]1CCC[C@H]2N(C)C(=O)c3c(O)c(=O)c(C(=O)NCc4cccc(Cl)c4F)cn3N12 [II-014]	9.26
CCN1C(=O)c2c(O)c(=O)c(C(=O)NCc3c(F)cc(F)cc3F)cn2N2C[C@@H]3CCC[C@@H](C3)[C@@H]12 [II-016]	9.19
CCN1C(=O)c2c(O)c(=O)c(C(=O)NCc3ccc(F)cc3F)cn2N2CCC3(CCC3)C[C@@H]12 [II-017]	8.80
CCN1C(=O)c2c(O)c(=O)c(C(=O)NCc3nccc(Cl)c3F)cn2N2CCCC[C@@H]12 [II-019]	9.64
CCN1C(=O)c2c(O)c(=O)c(C(=O)NCc3ccc(F)cc3F)cn2N2[C@@H]3CCC[C@@H]3C[C@@H]12 [II-025]	8.96
CN1C(=O)c2c(O)c(=O)c(C(=O)NCc3ccc(Cl)cc3F)cn2N2Cc3ccccc3[C@@H]12 [II-029]	8.42
CCN1C(=O)c2c(O)c(=O)c(C(=O)NCc3ccc(F)cc3F)cn2N2[C@H]3CCC[C@H]3CC[C@@H]12 [II-030]	9.07
CCN1C(=O)c2c(O)c(=O)c(C(=O)NCc3cccc(Cl)c3F)cn2N2[C@H](C)CCC[C@@H]12 [II-032]	8.82
CN1C(=O)c2c(O)c(=O)c(C(=O)NCc3ccc(F)c(Cl)c3F)cn2N2CCCC[C@@H]12 [II-033]	9.66
CCOC[C@@H](C)N1C(=O)c2c(O)c(=O)c(C(=O)NCc3ccc(F)cc3F)cn2N2CCCC[C@@H]12 [II-034]	9.14
